Molecules are shown by their SMILES. Values joined by “and” are separate entries in the source; they are usually repeats but may differ in a detail not shown here. Equal entries are not always repeated.

The subject of the assay is S. aureus ATCC 6538. The assay can be described thus: Antimicrobial suspension test of H2O2 with and without photon activation. Type of assay: cell-based. The settings on record: contact time 5 minutes; for Average CFU/ML: average of replicates; for CFU/ML: single replicate.

For the compound `OO` [1 ppm H2O2 no photon activation, H2O2], the “% reduction Compared to controls” value is listed as “No reduction”, the “LOG 10 Reduction compared to controls” value is reported as “No reduction”, the “Average CFU/ML” value was determined as 4.05E+06 CFU/ML and the CFU/ML was 4.10E+06 CFU/ML. Under “listed as l ppm H2O2 no photon activation”, this compound showed a CFU/ML of 4.10E+06 CFU/ML.
On to `OO` [.3% H2O2 no photon activation, H2O2], for which the “% reduction Compared to controls” value is listed as “No reduction”; the “LOG 10 Reduction compared to controls” value is on record as “No reduction”; the “Average CFU/ML” value is given as 4.05E+06 CFU/ML; the CFU/ML is 4.10E+06 CFU/ML and 4.00E+06 CFU/ML.

For the origin of these results see US11598701B1, “Method and system for lysing a liquid sample with augmented oxidizing agents to create a solution with a reduced microbial concentration and precipitate formation” (BIS SCIENCE LLC, priority 2021, dated 2023).
